{"source": "patent US5135943A", "about": "“1H-imidazole derivative compounds and pharmaceutical compositions containing the same” (priority 1984, dated 1992)", "key": {"[1]": {"assay": "in vivo", "details": "mouse, ip", "from_the_text": "(§3) Such signs included convulsions and Straub tail(vertical righting of the tail)."}, "[2]": {"test_system": "16 microorganisms", "assay": "Geometric mean of all MIC measurements, comparative in vitro testing", "type": "cell-based", "details": "read-out: Geometric means of MIC", "method": "(§1) Minimum Inhibitory Concentrations (MICS) of Sertaconazole were also measured in comparison to four of the compounds described in the Martin Patent, including a compound, referred to herein as Martin Compound 1, which has the same structure as Sertaconazole, expect that the sulfur in the benzothiophene ring is replaced by an oxygen.\n(§2) The results of comparative in vitro testing of Sertaconazole and these four Martin compounds are shown in the following Table II against 16 microorganisms. The reading time is the time interval from the time of inoculation to the time of measurement."}, "[3]": {"test_system": "Swiss mice", "assay": "Acute toxicity in Swiss mice i.p.", "details": "for LD0: Swiss mice i.p.", "from_the_text": "as §3"}, "[4]": {"test_system": "C. albicans 32", "assay": "MIC, comparative in vitro testing against Martin compounds", "type": "cell-based", "details": "Candida albicans, 32, YNB medium, read-out: MIC", "method": "as §1, §2"}, "[5]": {"test_system": "C. guillermondii", "assay": "MIC, comparative in vitro testing against Martin compounds", "type": "cell-based", "details": "read-out: MIC", "method": "as §1, §2"}, "[6]": {"test_system": "C. albicans 14", "assay": "MIC, comparative in vitro testing against Martin compounds", "type": "cell-based", "details": "Casitone medium", "method": "as §1, §2"}, "[7]": {"test_system": "C. albicans 15", "assay": "MIC, comparative in vitro testing against Martin compounds", "type": "cell-based", "details": "Casitone medium", "method": "as §1, §2"}, "[8]": {"test_system": "C. tropicalis 25", "assay": "MIC, comparative in vitro testing against Martin compounds", "type": "cell-based", "details": "YNB medium", "method": "as §1, §2"}, "[9]": {"test_system": "C. albicans ATCC E-10231", "assay": "MIC, comparative in vitro testing against Martin compounds", "type": "cell-based", "details": "Candida albicans, ATCCE10231, Casitone medium, read-out: MIC", "method": "as §1, §2"}, "[10]": {"test_system": "C. parapsilosis 19", "assay": "MIC, comparative in vitro testing against Martin compounds", "type": "cell-based", "method": "as §1, §2"}, "[11]": {"test_system": "C. stellatoidea 36232", "assay": "MIC, comparative in vitro testing against Martin compounds", "type": "cell-based", "method": "as §1, §2"}, "[12]": {"test_system": "C. krusei 24", "assay": "MIC, comparative in vitro testing against Martin compounds", "type": "cell-based", "details": "read-out: MIC", "method": "as §1, §2"}, "[13]": {"test_system": "C. pseudotropicalis 21", "assay": "MIC, comparative in vitro testing against Martin compounds", "type": "cell-based", "details": "Kluyveromyces marxianus, 21, Sabouraud medium, read-out: MIC", "method": "as §1, §2"}, "[14]": {"test_system": "C. albicans 31", "assay": "MIC, comparative in vitro testing against Martin compounds", "type": "cell-based", "details": "Candida albicans, 31, YNB medium, read-out: MIC", "method": "as §1, §2"}, "[15]": {"test_system": "Swiss mice", "details": "mouse, in vivo", "from_the_text": "as §3"}}, "note": "Read-outs that look alike come from different tables or passages of the source.", "data": [{"compound": "Clc1ccc(C(Cn2ccnc2)OCc2coc3c(Cl)cccc23)c(Cl)c1", "note": "(centres unmarked) [Martin compound 1, reference compound]", "values": [{"measurement": "LD50", "setting": "[1]", "value": 518, "unit": "mg/kg"}, {"measurement": "MIC", "setting": "[2]; 60 h, SZ vs M1, reading time 60 h", "value": 1.09, "unit": "µg/mL"}, {"measurement": "LD0", "setting": "[3]", "value": 285, "unit": "mg/kg"}, {"measurement": "signs of intoxication in the central nervous system (convulsions and Straub tail)", "setting": "[3]; mice", "value": "evident signs of intoxication in the central nervous system"}, {"measurement": "MIC", "setting": "[4]; reading time 60 h, SZ vs M1", "value": 8, "unit": "µg/mL"}, {"measurement": "MIC", "setting": "[5]; 60 h, Casitone medium, reading time 60 h, SZ vs M1", "value": 0.5, "unit": "µg/mL"}, {"measurement": "MIC", "setting": "[5]; 60 h, YNB medium, reading time 60 h, SZ vs M1", "value": 0.5, "unit": "µg/mL"}, {"measurement": "MIC", "setting": "[6]; Candida albicans, 14, 60 h, reading time 60 h, SZ vs M1", "value": 2, "unit": "µg/mL"}, {"measurement": "MIC", "setting": "[7]; Candida albicans, 15, 60 h, reading time 60 h, SZ vs M1", "value": 1, "unit": "µg/mL"}, {"measurement": "MIC", "setting": "[8]; Candida tropicalis, 25, 60 h, reading time 60 h, SZ vs M1", "value": 8, "unit": "µg/mL"}, {"measurement": "MIC", "setting": "[9]; reading time 60 h, SZ vs M1", "value": 2, "unit": "µg/mL"}, {"measurement": "MIC", "setting": "[10]; 19, 60 h, Sabouraud medium, reading time 60 h, SZ vs M1", "value": 1, "unit": "µg/mL"}, {"measurement": "MIC", "setting": "[10]; 19, 60 h, YNB medium, reading time 60 h, SZ vs M1", "value": 0.5, "unit": "µg/mL"}, {"measurement": "MIC", "setting": "[11]; Candida albicans, 36232, 60 h, Casitone medium, reading time 60 h, SZ vs M1", "value": 0.5, "unit": "µg/mL"}, {"measurement": "MIC", "setting": "[11]; Candida albicans, 36232, 60 h, Sabouraud medium, reading time 60 h, SZ vs M1", "value": 1, "unit": "µg/mL"}, {"measurement": "MIC", "setting": "[11]; Candida albicans, 36232, 60 h, YNB medium, reading time 60 h, SZ vs M1", "value": 4, "unit": "µg/mL"}, {"measurement": "MIC", "setting": "[12]; Pichia kudriavzevii, 24, 60 h, Casitone medium, reading time 60 h, SZ vs M1", "value": 1, "unit": "µg/mL"}, {"measurement": "MIC", "setting": "[12]; Pichia kudriavzevii, 24, 60 h, YNB medium, reading time 60 h, SZ vs M1", "value": 0.25, "unit": "µg/mL"}, {"measurement": "MIC", "setting": "[13]; reading time 60 h, SZ vs M1", "value": 0.03, "unit": "µg/mL"}, {"measurement": "MIC", "setting": "[14]; reading time 60 h, SZ vs M1", "value": 8, "unit": "µg/mL"}]}, {"compound": "Clc1ccc(C(Cn2ccnc2)OCc2coc3cc(Cl)ccc23)c(Cl)c1", "note": "(centres unmarked) [Martin compound 2, reference compound]", "values": [{"measurement": "LD50", "setting": "[1]", "value": 640, "unit": "mg/kg"}, {"measurement": "MIC", "setting": "[2]; 48 h, SZ vs M2, reading time 48 h", "value": 0.565, "unit": "µg/mL"}, {"measurement": "LD0", "setting": "[3]", "value": 235, "unit": "mg/kg"}, {"measurement": "MIC", "setting": "[4]; reading time 48 h, SZ vs M2", "value": 4, "unit": "µg/mL"}, {"measurement": "MIC", "setting": "[5]; 48 h, Casitone medium, reading time 48 h, SZ vs M2", "value": 0.5, "unit": "µg/mL"}, {"measurement": "MIC", "setting": "[5]; 48 h, YNB medium, reading time 48 h, SZ vs M2", "value": 0.5, "unit": "µg/mL"}, {"measurement": "MIC", "setting": "[6]; Candida albicans, 14, 48 h, reading time 48 h, SZ vs M2", "value": 0.25, "unit": "µg/mL"}, {"measurement": "MIC", "setting": "[7]; Candida albicans, 15, 48 h, reading time 48 h, SZ vs M2", "value": 0.06, "unit": "µg/mL"}, {"measurement": "MIC", "setting": "[8]; Candida tropicalis, 25, 48 h, reading time 48 h, SZ vs M2", "value": 8, "unit": "µg/mL"}, {"measurement": "MIC", "setting": "[9]; reading time 48 h, SZ vs M2", "value": 0.5, "unit": "µg/mL"}, {"measurement": "MIC", "setting": "[10]; 19, 48 h, Sabouraud medium, reading time 48 h, SZ vs M2", "value": 1, "unit": "µg/mL"}, {"measurement": "MIC", "setting": "[10]; 19, 48 h, YNB medium, reading time 48 h, SZ vs M2", "value": 1, "unit": "µg/mL"}, {"measurement": "MIC", "setting": "[11]; Candida albicans, 36232, 48 h, Casitone medium, reading time 48 h, SZ vs M2", "value": 0.06, "unit": "µg/mL"}, {"measurement": "MIC", "setting": "[11]; Candida albicans, 36232, 48 h, Sabouraud medium, reading time 48 h, SZ vs M2", "value": 0.5, "unit": "µg/mL"}, {"measurement": "MIC", "setting": "[11]; Candida albicans, 36232, 48 h, YNB medium, reading time 48 h, SZ vs M2", "value": 1, "unit": "µg/mL"}, {"measurement": "MIC", "setting": "[12]; Pichia kudriavzevii, 24, 48 h, Casitone medium, reading time 48 h, SZ vs M2", "value": 0.05, "unit": "µg/mL"}, {"measurement": "MIC", "setting": "[12]; Pichia kudriavzevii, 24, 48 h, YNB medium, reading time 48 h, SZ vs M2", "value": 0.5, "unit": "µg/mL"}, {"measurement": "MIC", "setting": "[13]; reading time 48 h, SZ vs M2", "value": 0.06, "unit": "µg/mL"}, {"measurement": "MIC", "setting": "[14]; reading time 48 h, SZ vs M2", "value": 4, "unit": "µg/mL"}]}, {"compound": "Clc1ccc(C(Cn2ccnc2)OCc2cc3cc(Cl)ccc3o2)c(Cl)c1", "note": "(centres unmarked) [Martin compound 3, reference compound]", "values": [{"measurement": "LD50", "setting": "[1]", "value": 640, "unit": "mg/kg"}, {"measurement": "MIC", "setting": "[2]; 48 h, SZ vs M3, reading time 48 h", "value": 0.497, "unit": "µg/mL"}, {"measurement": "mice with generalized pulmonary edema and congestion", "setting": "[15]", "value": 80, "unit": "%"}, {"measurement": "signs of intoxication in the central nervous system (convulsions and Straub tail)", "setting": "[15]", "value": "evident signs of intoxication in the central nervous system"}, {"measurement": "LD0", "setting": "[15]; ip", "value": 423, "unit": "mg/kg"}, {"measurement": "MIC", "setting": "[4]; reading time 48 h, SZ vs M3", "value": 4, "unit": "µg/mL"}, {"measurement": "MIC", "setting": "[5]; 48 h, Casitone medium, reading time 48 h, SZ vs M3", "value": 0.25, "unit": "µg/mL"}, {"measurement": "MIC", "setting": "[5]; 48 h, YNB medium, reading time 48 h, SZ vs M3", "value": 0.25, "unit": "µg/mL"}, {"measurement": "MIC", "setting": "[6]; Candida albicans, 14, 48 h, reading time 48 h, SZ vs M3", "value": 0.5, "unit": "µg/mL"}, {"measurement": "MIC", "setting": "[7]; Candida albicans, 15, 48 h, reading time 48 h, SZ vs M3", "value": 0.06, "unit": "µg/mL"}, {"measurement": "MIC", "setting": "[8]; Candida tropicalis, 25, 48 h, reading time 48 h, SZ vs M3", "value": 8, "unit": "µg/mL"}, {"measurement": "MIC", "setting": "[9]; reading time 48 h, SZ vs M3", "value": 0.5, "unit": "µg/mL"}, {"measurement": "MIC", "setting": "[10]; 19, 48 h, Sabouraud medium, reading time 48 h, SZ vs M3", "value": 0.5, "unit": "µg/mL"}, {"measurement": "MIC", "setting": "[10]; 19, 48 h, YNB medium, reading time 48 h, SZ vs M3", "value": 1, "unit": "µg/mL"}, {"measurement": "MIC", "setting": "[11]; Candida albicans, 36232, 48 h, Casitone medium, reading time 48 h, SZ vs M3", "value": 0.125, "unit": "µg/mL"}, {"measurement": "MIC", "setting": "[11]; Candida albicans, 36232, 48 h, Sabouraud medium, reading time 48 h, SZ vs M3", "value": 0.5, "unit": "µg/mL"}, {"measurement": "MIC", "setting": "[11]; Candida albicans, 36232, 48 h, YNB medium, reading time 48 h, SZ vs M3", "value": 4, "unit": "µg/mL"}, {"measurement": "MIC", "setting": "[12]; Pichia kudriavzevii, 24, 48 h, Casitone medium, reading time 48 h, SZ vs M3", "value": 0.125, "unit": "µg/mL"}, {"measurement": "MIC", "setting": "[12]; Pichia kudriavzevii, 24, 48 h, YNB medium, reading time 48 h, SZ vs M3", "value": 0.25, "unit": "µg/mL"}, {"measurement": "MIC", "setting": "[13]; reading time 48 h, SZ vs M3", "value": 0.03, "unit": "µg/mL"}, {"measurement": "MIC", "setting": "[14]; reading time 48 h, SZ vs M3", "value": 4, "unit": "µg/mL"}]}, {"compound": "Clc1ccc(C(Cn2ccnc2)OCc2csc3c(Cl)cccc23)c(Cl)c1", "note": "(centres unmarked) [Sertaconazole nitrate]", "values": [{"measurement": "LD0", "setting": "[15]; ip", "value": 2000, "unit": "mg/kg"}, {"measurement": "LD50", "setting": "[15]; ip", "value": 8000, "unit": "mg/kg"}]}]}
